Test results from PubChem BioAssay AID1850 (Southern Research Specialized Biocontainment Screening …, 2009).

These compounds were tested on Salmonella Typhi PhoP-promoter GFP reporter, fluorescence, 4 h (assay: PhoP regulon inhibitors, Salmonella typhi PhoP promoter GFP reporter, confirmatory (AID 1850)).
In the case of Cc1cc(O)c2c(c1)C(=O)C13C(=C2O)C(=O)[C@H]2[C@@H](O)[C@@H]1[C@H]1[C@H](O)[C@@H]3C(=O)C3=C(O)c4c(O)cc(C)cc4C(=O)C312 (stereo partly specified), the IC50 is reported as 5.14 µM. O=C(Nc1cccc(Br)c1)c1cc2ccccc2o1 gave an IC50 of 25.4 µM. For O=c1[nH]cc(F)c(=O)[nH]1, the IC50 was 2.99 µM. For CCN(CCC(=O)Nc1ccc(Br)c(C)c1)Cc1ccccc1, the IC50 was 75.1 µM. With Fc1ccc(Nc2nc(NCc3ccco3)c3ccccc3n2)cc1 the IC50 was 3.81 µM. Clc1ccc(Nc2ccc(NCc3ccccc3)nn2)cc1 was tested, and the IC50 was 101 µM. With CCN(CC)c1ccc(CNc2nc3ccccc3n2CCN2CCCCC2)cc1 the IC50 was 52.1 µM. COc1ccccc1Nc1nc(NCc2ccco2)c2ccccc2n1 was tested, and the IC50 was 19.6 µM. C[C@H]1COc2c(C3(N)CC3)c(F)cc3c(=O)c(C(=O)O)cn1c23 was tested, and the IC50 was less than 0.23 µM. In the case of OC(CNCCc1ccc(C(F)(F)F)cc1)COC(c1ccccc1)c1ccccc1 (stereo unspecified), the IC50 is reported as 25.8 µM. CCCCOc1ccc(NC2=NC3(CCCC3)N=C(N)N2)cc1 showed an IC50 of 20.8 µM. For C#CCOCCOCCOCCNc1nc(N2CCN(C(=O)CCCCCCCCCCNC(=O)Cn3cc(CCCCCN)nn3)CC2)nc(N2CCN(C(=O)CCCCCCCCCCNC(=O)[C@H]([C@@H](C)CC)n3cc(CCCCCN)nn3)CC2)n1, the IC50 was 38.9 µM. For COc1ccc(CNCCC(c2ccccc2)c2ccc3c(c2)OCO3)cc1 (stereo unspecified), the IC50 was 78.7 µM. In the case of C[C@H]1COc2c(N3CCN(C)CC3)c(F)cc3c(=O)c(C(=O)O)cn1c23, the IC50 is reported as less than 0.23 µM. O=C(NC(=S)NNC(=O)c1ccccc1O)c1ccco1 was tested, and the IC50 was 29.5 µM. With CC(NCc1ccc(-c2ccccc2)cc1)C(O)c1ccccc1 (stereo unspecified) the IC50 was 63.6 µM. With Cc1ccc2c(c1)c1c(n2CC(O)CN2CCC(C)CC2)CCCC1 (stereo unspecified) the IC50 was 78.3 µM. For CCC(C)(C)c1ccc(OCCCC[n+]2ccccc2)c(C(C)(C)CC)c1, the IC50 was 19.2 µM. CN1CCN(c2c(F)cc3c(=O)c(C(=O)O)cn4c3c2OCN4C)CC1 showed an IC50 of less than 0.23 µM. In the case of Cc1ccc(NC(=O)COc2ccccc2CNC(C)(C)CC(C)(C)C)cc1, the IC50 is reported as 91.6 µM. With CC(=O)Nc1cccc(NC(=O)Nc2ccc(F)cc2F)c1 the IC50 was 40.8 µM. Work on COc1cc(/C=N/NC(=O)c2cncc(Br)c2)cc([N+](=O)[O-])c1O yielded an IC50 of 63.5 µM. O=C(Nc1cccc(Cl)c1)Nc1nccs1 showed an IC50 of 40 µM. Compound Cc1cc(C)n(/N=C/c2cc(Cl)cc(Cl)c2O)c(=O)c1 has an IC50 of 137 µM. With O=CN/N=C/c1c(O)ccc2ccccc12 the IC50 was 35.4 µM. With COc1c(N2CCN(C(=S)Nc3ccc(F)cc3)C(C)C2)c(F)cc2c(=O)c(C(=O)O)cn(C3CC3)c12 (stereo unspecified) the IC50 was 1.72 µM. c1ccc2c(c1)CSc1sccc1C2=C1CCNCC1 gave an IC50 of 49.7 µM. For O=c1[nH]c(=S)ccn1C1OC(CO)C(O)C1O (stereo unspecified), the IC50 was 28.6 µM. For CCn1cc(C(=O)O)c(=O)c2cc(F)c(N3CCN(C(=S)NC(=O)c4ccccc4)CC3)cc21, the IC50 was 18 µM. With O=C(Nc1cccc([N+](=O)[O-])c1)Nc1cccs1 the IC50 was 24.7 µM. Oc1ccc(/C=N/Nc2nccnc2Cl)c(O)c1 showed an IC50 of 70.4 µM. For CCCCCCC[N+](CC)(CC)CCCCc1ccc(Cl)cc1, the IC50 was 54.7 µM. For COc1cccc(Nc2nc(NCCO)c3ccccc3n2)c1, the IC50 was 19.9 µM. O=C(N/N=C/c1cc([N+](=O)[O-])ccc1O)C(O)(c1ccccc1)c1ccccc1 gave an IC50 of 73.4 µM. Compound O=C(NC(=S)NNC(=O)c1cccs1)c1ccco1 has an IC50 of 39.1 µM. O=C(N/N=C/c1cc(Cl)ccc1O)c1ccncc1 gave an IC50 of 19.7 µM. CC(NCc1ccc(Cl)c(Cl)c1)C(O)c1ccccc1 (stereo unspecified) was tested, and the IC50 was 61.6 µM. Work on [O-][n+]1cccc2c(Br)cc(Br)c(O)c21 yielded an IC50 of 69.1 µM. Work on CN1CCCN(C(c2ccccc2)c2ccc(Cl)cc2)CC1 (stereo unspecified) yielded an IC50 of 86.8 µM. With Cc1cc(C)c2nc(C)cc(N/N=C/c3ccc(O)cc3)c2c1 the IC50 was 36.4 µM. Cc1[nH]cnc1C(=O)N/N=C/c1ccc([N+](=O)[O-])s1 gave an IC50 of 20.4 µM. C/C(=N\Nc1ccc2nncn2n1)c1ccccn1 gave an IC50 of 65.7 µM. CCn1cc(C(=O)O)c(=O)c2cc(F)c(N3CCN(C(=S)NC(=O)c4ccccc4C)CC3)cc21 was tested, and the IC50 was 14.8 µM. In the case of CCOc1ccc(/C=N/NC(=O)c2[nH]ncc2Br)c(O)c1, the IC50 is reported as 138 µM. O=C(N/N=C/c1ccccn1)c1ccc(Br)o1 was tested, and the IC50 was 60.7 µM. With CC(C)CCC(CCNCc1ccccn1)c1ccc(Cl)cc1 (stereo unspecified) the IC50 was 65.4 µM.
